Results published in publication PMC4038399, “Experimental validation of [sequence]^comb virtual ligand screening results for eight proteins yields novel nanomolar and micromolar binders” (Journal of Cheminformatics, 2014).
Converted amounts (≈) assume the structure as drawn. Where two headings read alike, the source gives them in different places.

How the values were obtained:
[1] = molecular target: E. coli dihydrofolate reductase (DHFR) (Escherichia coli, UniProt P0ABQ4); assay: biochemical; format: binding; conditions: Table S3; for Kd: computed from the thermal shifts obtained, read-out: KD (Approx); for Q (quality score): ratio ΔFmelt/ΔFtotal of the melting curve
Sequence of E. coli dihydrofolate reductase (DHFR) (P0ABQ4 whole entry): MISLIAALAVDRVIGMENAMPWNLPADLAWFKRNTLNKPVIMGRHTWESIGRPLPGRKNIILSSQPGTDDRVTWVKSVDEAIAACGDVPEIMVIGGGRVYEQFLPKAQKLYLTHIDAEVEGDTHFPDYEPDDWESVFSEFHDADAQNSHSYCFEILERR
Protocol: (§1) High throughput thermal shift assays were carried out following established guidelines (Additional file 1: Table S1). Protein melting curves were obtained from samples aliquoted in 96-well plates using a RealPlex quantitative PCR instrument from Eppendorf (Eppendorf, NY, USA), with Sypro orange dye from Invitrogen as the fluorescent probe. A uniform final concentration of 5 X (supplied as a 5000 X stock solution) was used in all experiments. […] For standardization, different buffers and pH were checked. Thereafter, 100 mM HEPES pH 7.3 and 150 mM NaCl were used in all unfolding experiments. The volume of each reaction was 20 μl, and appropriate dye and protein controls were included. All experiments were done with a minimum of two replicates, with the mean value considered for further analysis. Several drugs/small molecules interact with Sypro orange and lead to aberrant signal enhancements. An additional control to rule out drug-dye interaction was carried out with all the constituents kept constant except for the protein of interest. The protein/protein-drug curves were reported after subtracting the respective dye alone/drug-dye curves.
(§2) Each melting curve was assigned a quality score (Q), the ratio of the melting-associated increase in fluorescence (ΔFmelt) to the total fluorescence range (ΔFtotal). Q = 1 is a high-quality curve, while Q = 0 indicates no thermal transition. Though an arbitrary Q value cutoff was not applied to judge curve quality, the curves were manually curated with Q values reported.
(§3) Subsequent to standardization, (see SI Methods), the validity of the top 1% of […]^comb’s predictions on the test set of eight diverse proteins was examined. To be conservative, we focused only on those protein/ligand pairs showing single sigmoidal thermal transition curves. The fit to Boltzmann’s equation (Eq. 1) was employed to estimate the melting temperature from the observed intensity, I.
(§4) (4) I=Imin+Imax-Imin/1+e^Tm-T/a
(§5) Imin and Imax are the minimum and maximum intensities; a denotes the slope of the curve at the transition midpoint temperate, Tm. To estimate thermodynamic parameters, both van’t Hoff and Gibbs-Helmholtz analyses were done. To estimate the approximate ligand-binding affinity at Tm, Eq. (2) from reference was used with slight modifications; ΔCp is ignored.
(§6) (5) KLTm=exp-ΔH/R1/Tm-1/To/L
(§7) KL(Tm) is the ligand association constant and [L] is the free ligand concentration at Tm ([LTm] ~ [L]total, when [L]total > > the total concentration of protein. KD is the inverse of KL(Tm).
(§8) Thermal unfolding of the eight benchmark proteins was carried out in a 20 μl reaction mix with 100 mM HEPES pH 7.3, 150 mM NaCl, 5 X Sypro orange dye, 10 μM protein and 1 mM of all the predicted ligands.

[2] = molecular target: T1, Tryptophanyl tRNA synthetase (TrpRS) (Homo sapiens, UniProt P23381); assay: Thermal shift (thermal melt) assay, Sypro orange; format: binding, H. sapiens; conditions: for Q (quality score): ratio ΔFmelt/ΔFtotal
T1 sequence (P23381 1-471): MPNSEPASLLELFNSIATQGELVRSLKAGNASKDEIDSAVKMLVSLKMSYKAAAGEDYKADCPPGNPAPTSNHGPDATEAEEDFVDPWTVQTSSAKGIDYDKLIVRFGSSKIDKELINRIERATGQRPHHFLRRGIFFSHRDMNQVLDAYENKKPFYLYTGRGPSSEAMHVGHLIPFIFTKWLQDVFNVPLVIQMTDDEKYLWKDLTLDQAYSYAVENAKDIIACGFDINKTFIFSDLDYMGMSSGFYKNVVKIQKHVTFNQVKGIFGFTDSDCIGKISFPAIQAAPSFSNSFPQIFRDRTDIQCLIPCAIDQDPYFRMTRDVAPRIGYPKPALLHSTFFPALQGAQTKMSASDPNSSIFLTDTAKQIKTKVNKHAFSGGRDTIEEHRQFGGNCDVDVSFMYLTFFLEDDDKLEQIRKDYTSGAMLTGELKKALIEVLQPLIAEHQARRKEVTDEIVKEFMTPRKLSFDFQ
Protocol: as §1, §2, §3, §4, §5, §6, §7, §8

[3] = molecular target: Catalytic subunit of cAMP-dependent protein kinase (cDPK) (Homo sapiens, UniProt P17612); assay: Thermal shift (thermal melt) assay, Sypro orange; format: binding, H. sapiens; conditions: for ΔTm: Table S5, 1 mM ligand; for Kd: approximate, computed from the thermal shift, read-out: KD (Approx)
Protocol: (§9) High throughput thermal shift assays were carried out following established guidelines (Additional file 1: Table S1). Protein melting curves were obtained from samples aliquoted in 96-well plates using a RealPlex quantitative PCR instrument from Eppendorf (Eppendorf, NY, USA), with Sypro orange dye from Invitrogen as the fluorescent probe. A uniform final concentration of 5 X (supplied as a 5000 X stock solution) was used in all experiments. The dye was excited at 465 nm and emission recorded at 580 nm using the instrument’s filters. A heating ramp of 1°C/min from 25°C to 74°C was used, and one data point acquired for each degree increment. For standardization, different buffers and pH were checked. Thereafter, 100 mM HEPES pH 7.3 and 150 mM NaCl were used in all unfolding experiments. The volume of each reaction was 20 μl, and appropriate dye and protein controls were included. All experiments were done with a minimum of two replicates, with the mean value considered for further analysis. Several drugs/small molecules interact with Sypro orange and lead to aberrant signal enhancements. An additional control to rule out drug-dye interaction was carried out with all the constituents kept constant except for the protein of interest. The protein/protein-drug curves were reported after subtracting the respective dye alone/drug-dye curves.
as §2, with “reported. […] These were ignored (see Table 1).” for “reported.”
as §3, §4, §5, §6, §7, §8

[4] = molecular target: Nucleosome assembly protein 1 (NAP1) (Plasmodium knowlesi, UniProt A0A384KYS3); assay: Thermal shift (thermal melt) assay, Sypro orange; format: binding, P. knowlesi; conditions: for Kd: approximate, computed from the thermal shift, read-out: KD (Approx)
Sequence of Nucleosome assembly protein 1 (NAP1) (A0A384KYS3 entry or part of it): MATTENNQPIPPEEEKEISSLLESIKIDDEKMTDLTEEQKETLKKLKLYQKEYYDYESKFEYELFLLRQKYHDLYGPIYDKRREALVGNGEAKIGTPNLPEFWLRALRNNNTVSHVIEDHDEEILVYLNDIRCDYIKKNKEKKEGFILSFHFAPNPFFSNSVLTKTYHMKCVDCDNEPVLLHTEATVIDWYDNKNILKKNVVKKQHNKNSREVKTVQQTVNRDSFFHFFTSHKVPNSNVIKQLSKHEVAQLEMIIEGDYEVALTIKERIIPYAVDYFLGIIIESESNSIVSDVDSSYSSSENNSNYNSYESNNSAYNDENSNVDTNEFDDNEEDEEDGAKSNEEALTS
Protocol: as §9
as §2, with “reported. […] These were ignored (see Table 1).” for “reported.”
as §3, §4, §5, §6, §7, §8

[5] = molecular target: T2, 1000006: catalytic domain of protein tyrosine phosphatase (2G59) (Homo sapiens, UniProt Q16827); assay: Thermal shift (thermal melt) assay, Sypro orange; format: binding, H. sapiens; conditions: Table S6; known binders of 1000001 tested on 1000006; in °C (unit assumed)
T2 construct: the catalytic domain of PTP from H. sapiens (PDB ID: 2G59) (1000006); New York structural genomics consortium (gift)
T2 sequence (Q16827 938-1195 limits assumed): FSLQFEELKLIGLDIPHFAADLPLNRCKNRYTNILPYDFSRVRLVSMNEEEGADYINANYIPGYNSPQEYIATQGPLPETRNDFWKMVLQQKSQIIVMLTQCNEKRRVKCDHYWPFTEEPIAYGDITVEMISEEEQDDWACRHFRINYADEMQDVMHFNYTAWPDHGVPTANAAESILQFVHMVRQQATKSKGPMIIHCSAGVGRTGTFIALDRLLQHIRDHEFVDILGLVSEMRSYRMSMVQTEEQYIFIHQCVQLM
Protocol: as §9
as §2, with “reported. […] These were ignored (see Table 1).” for “reported.”
as §3, §4, §5, §6, §7, §8

[6] = molecular target: T3, 1000001: Carboxy-terminus phosphatase domain of protein tyrosine phosphatase (2NV5) (Mus musculus, UniProt Q64487); assay: Thermal shift (thermal melt) assay, Sypro orange; format: binding, M. musculus; design: key to Q (quality score): Q = ΔFmelt/ΔFtotal; 1 = high-quality curve, 0 = no transition; conditions: for ΔTm: in °C (unit assumed)
T3 construct: The C-terminal phosphatase domain from R. norvegicus (PDB ID: 2NV5) (1000001); New York structural genomics consortium (gift)
T3 sequence (Q64487 1331-1621): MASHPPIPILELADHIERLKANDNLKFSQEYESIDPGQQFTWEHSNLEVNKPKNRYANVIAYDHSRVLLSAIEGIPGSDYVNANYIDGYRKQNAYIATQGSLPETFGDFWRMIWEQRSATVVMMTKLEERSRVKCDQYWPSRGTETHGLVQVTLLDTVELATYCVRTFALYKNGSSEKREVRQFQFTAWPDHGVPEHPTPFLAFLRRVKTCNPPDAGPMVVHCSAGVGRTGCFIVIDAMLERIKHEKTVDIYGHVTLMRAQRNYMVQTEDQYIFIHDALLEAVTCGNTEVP
Protocol: as §9
as §2, with “reported. […] These were ignored (see Table 1).” for “reported.”
as §3, §4, §5, §6, §7, §8

[7] = tested on: HCT-116 colon carcinoma cell line; assay: Cytotoxic assay on cancer cell line; format: cell-based
Protocol: Antimicrobial and anti-cancer tests were performed as in [80].

[8] = molecular target: Ubiquitin conjugating enzyme (UCE) (Plasmodium falciparum, UniProt Q8I607); assay: Thermal shift (thermal melt) assay, Sypro orange; format: binding, P. falciparum; conditions: for Kd: approximate, computed from the thermal shift; for ΔTm: thermal shift, 1 mM ligand, 10 μM protein
Sequence of Ubiquitin conjugating enzyme (UCE) (Q8I607 1-147): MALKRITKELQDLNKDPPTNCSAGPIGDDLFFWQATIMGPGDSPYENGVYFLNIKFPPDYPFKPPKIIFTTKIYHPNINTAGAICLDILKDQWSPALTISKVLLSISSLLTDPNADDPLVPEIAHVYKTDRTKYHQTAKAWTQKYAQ
Protocol: as §9
as §2, with “reported. […] These were ignored (see Table 1).” for “reported.”
as §3, §4, §5, §6, §7, §8

[9] = Table S4, TrpRS, computed from the thermal shifts obtained, read-out: KD (Approx)
[10] = Table S4, TrpRS, in °C (unit assumed)
[11] = approximate, computed from the thermal shift, read-out: KD
[12] = inhibitory concentration for 50% growth inhibition

For `Nc1ccc(NC(=O)c2ccc(C(=O)Nc3ccc(N)cc3)cc2)cc1` [NSC 55152], the Kd [1] was roughly 73.8 µM, the “Q (quality score)” value [1] was 0.2 and the ΔTm ([1]; thermal shift, in °C (unit assumed)) was 5.89. For the same compound, the Kd [2, 9] was roughly 39.6 µM, the ΔTm [2, 10] was 6.17 and the “Q (quality score)” value ([2]; Table S4, TrpRS) was 0.95. The Kd [2, 11] was 39.6 µM.

In the case of `Nc1ccc(-c2nc3nc(N)nc(N)c3nc2-c2ccc(N)cc2)cc1` [NSC 61642, 6,7-bis(4-aminophenyl) pteridine-2,4-diamine, reference compound], the Kd [1] is reported as roughly 2.03 µM, the “Q (quality score)” value [1] is reported as 0.6 and the “Q (quality score of melting curve, ΔFmelt/ΔFtotal)” value [3] is reported as 0.4. For the same compound, the ΔTm [3] was 0.71 °C and the Kd [3] was 275 µM.

`Nc1ccn([C@@H]2O[C@H](CO)[C@@H](O)[C@@H]2O)c(=O)n1` [NSC 63878] showed a Kd [4] of 183 µM.

`Oc1cccc2nc3ccccc3nc12` [NSC 88882] showed a ΔTm [5] of 4.39, a Kd ([6]; Table S4, protein 1000001, computed from the thermal shifts obtained, read-out: KD (Approx)) of roughly 1.47 µM and a ΔTm ([6]; Table S4, protein 1000001) of 9.98. The “Q (quality score)” value ([6]; Table S4, protein 1000001, ratio ΔFmelt/ΔFtotal) was 0.8, the ΔTm ([6]; Table S6, 1000001, known binders of 1000001) was 9.79 and the Kd [2, 9] was roughly 3.83 µM. For the same compound, the ΔTm [2, 10] was 12.07, the “Q (quality score)” value ([2]; Table S4, TrpRS) was 0.6 and the Kd [2, 11] was roughly 3.8 µM. For the same compound, the “HCT-116 (IC-50)” value ([7]; Table S4) was 4.44 and the “HCT-116 (IC-50)” value [7, 12] was 4.44 µg/mL.

In the case of `NC(=O)c1cc2c3ccccc3ccn2c1-c1ccccc1` [NSC 93427], the “Q (quality score of melting curve, ΔFmelt/ΔFtotal)” value [8] is reported as 0.05, the Kd ([8]; listed as 93427, read-out: KD (Approx)) is reported as 1.38 µM and the Kd ([8]; listed as NSC93427, read-out: KD (Approx)) is reported as roughly 1.4 µM. The Kd ([8]; read-out: KD) was 1.38 µM, the ΔTm ([8]; listed as 93427) was 14.86 °C and the ΔTm ([8]; listed as NSC93427) was ~ 15 °C.

In the case of `Cc1cc2nc(CS)[nH]c2cc1C` [NSC 97104], the “Q (quality score of melting curve, ΔFmelt/ΔFtotal)” value [3] is reported as 0.5, the ΔTm [3] is reported as 1.01 °C and the Kd [3] is reported as 200 µM.

For `Cc1nc2c(O)cccc2cc1CO` [NSC 227309], the “Q (quality score of melting curve, ΔFmelt/ΔFtotal)” value [4] was 0.8, the ΔTm ([4]; Table S5, 1 mM ligand) was 0.64 °C and the Kd [4] was 371 µM.

For `CCN(CC)CCNC(=O)c1c(C)[nH]c(/C=C2\C(=O)Nc3ccc(F)cc32)c1C` [NSC 750690, Sunitinib, reference compound], the “Q (quality score)” value ([2]; Table S4, TrpRS) was 1.3, the ΔTm ([2]; thermal shift, 1 mM ligand, 10 μM protein) was 14.57 °C and the IC50 ([7]; Homo sapiens, HCT-116, inhibitory concentration for 50% growth inhibition, read-out: HCT-116 (IC-50)) was 1.1 µg/mL (≈ 2.76 µM). The “HCT-116 (IC-50)” value [7, 12] was 1.11 µg/mL.
